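In this assay, cells in 96-well plates receive the compound at five concentrations for 48 hours. Endpoints are linearly interpolated between the surrounding concentrations. At the GI50, growth is halved.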 Active and inactive are the calls of the source. No stated cut-off is given here; in the data, active = GI50 up to about 1.1 µM and inactive = higher.
What was measured:
Assay in all cases: growth of human tumour cells (NCI), 48 h
NCI-H23 = tested on: NCI-H23
SNB-19 = tested on: SNB-19
SF-268 = tested on: SF-268
HOP-62 = tested on: HOP-62
SF-295 = tested on: SF-295
SK-MEL-28 = tested on: SK-MEL-28
SNB-75 = tested on: SNB-75
HT-29 = tested on: HT-29
HL-60 = tested on: HL-60
NCI-H522 = tested on: NCI-H522
MOLT-4 = tested on: MOLT-4
EKVX = tested on: EKVX
UACC-257 = tested on: UACC-257
LOX IMVI = tested on: LOX IMVI
SK-MEL-2 = tested on: SK-MEL-2
UO-31 = tested on: UO-31
OVCAR-5 = tested on: OVCAR-5

Measured: GI50

CN(CCO)c1nc2c(c(=O)[nH]1)CNCC2
inactive: NCI-H23 > 100 µM | SNB-19 > 100 µM | SF-268 > 100 µM | HOP-62 > 100 µM | SF-295 > 100 µM | SK-MEL-28 > 100 µM | SNB-75 32.8 µM | HT-29 > 100 µM | HL-60 > 100 µM | NCI-H522 > 100 µM | MOLT-4 > 100 µM | EKVX > 100 µM | UACC-257 > 100 µM | LOX IMVI > 100 µM | SK-MEL-2 > 100 µM | UO-31 > 100 µM | OVCAR-5 > 100 µM

O=C(CC1(O)C(=O)Nc2ccc([N+](=O)[O-])cc21)c1ccncc1 (configuration not stated)
inactive: NCI-H23 22.1 µM | SNB-19 54.3 µM | SF-268 36.7 µM | HOP-62 > 100 µM | SF-295 80.2 µM | SK-MEL-28 32.3 µM | SNB-75 26.1 µM | HT-29 34 µM | HL-60 19.3 µM | NCI-H522 29.8 µM | MOLT-4 24.2 µM | EKVX > 100 µM | UACC-257 17.9 µM | LOX IMVI 15.5 µM | SK-MEL-2 85.1 µM | UO-31 56.1 µM | OVCAR-5 > 100 µM

Cc1nc2ccccc2c(=O)n1/N=C(\N=N\c1ccc(Cl)cc1)c1cccc(-c2ccco2)c1
inactive: NCI-H23 21.6 µM | SF-268 19.7 µM | HOP-62 22.5 µM | SF-295 48.5 µM | SK-MEL-28 16.8 µM | HT-29 34.3 µM | HL-60 25.1 µM | NCI-H522 17.7 µM | MOLT-4 22.4 µM | EKVX 51.8 µM | LOX IMVI 28.9 µM | UO-31 14.1 µM

CCCCNc1nc(C#N)c(N)s1
inactive: NCI-H23 > 100 µM | SNB-19 > 100 µM | SF-268 > 100 µM | HOP-62 > 100 µM | SF-295 > 100 µM | SK-MEL-28 > 100 µM | SNB-75 > 100 µM | HT-29 > 100 µM | HL-60 > 100 µM | NCI-H522 > 100 µM | MOLT-4 > 100 µM | UACC-257 > 100 µM | LOX IMVI > 100 µM | SK-MEL-2 > 100 µM | UO-31 > 100 µM | OVCAR-5 > 100 µM

Cc1cc([N+](=O)[O-])ccc1NC(=O)C(=O)C(C(=O)c1ccccc1-c1ccccc1)C1OC(=O)c2ccccc21 (configuration not stated)
inactive: NCI-H23 25.6 µM | SNB-19 3.44 µM | SF-268 21.6 µM | SF-295 19.2 µM | SK-MEL-28 14.8 µM | HT-29 18.8 µM | NCI-H522 12.9 µM | MOLT-4 15.6 µM | EKVX > 10 µM | UACC-257 25.4 µM | SK-MEL-2 12.6 µM | UO-31 16.6 µM | OVCAR-5 15.4 µM

COC(=O)CCC(NC(=S)N/N=C(\C)c1ccco1)C(=O)OC (configuration not stated)
inactive: NCI-H23 > 100 µM | SNB-19 > 100 µM | SF-268 > 100 µM | HOP-62 > 100 µM | SF-295 > 100 µM | SK-MEL-28 > 100 µM | SNB-75 > 100 µM | HT-29 > 100 µM | HL-60 > 100 µM | NCI-H522 > 100 µM | EKVX > 100 µM | UACC-257 > 100 µM | LOX IMVI > 100 µM | SK-MEL-2 > 100 µM | UO-31 > 100 µM | OVCAR-5 > 100 µM

CC(c1ccccc1)C(O)S(=O)(=O)O (configuration not stated)
inactive: NCI-H23 > 100 µM | SNB-19 > 100 µM | SF-268 > 100 µM | SF-295 > 100 µM | SK-MEL-28 > 100 µM | SNB-75 43.7 µM | HT-29 > 100 µM | NCI-H522 > 100 µM | MOLT-4 > 100 µM | EKVX > 100 µM | UACC-257 > 100 µM | LOX IMVI 36.8 µM | SK-MEL-2 > 100 µM | UO-31 > 100 µM | OVCAR-5 > 100 µM

NC1C[C@H](n2cc(/C=C/Br)c(=O)[nH]c2=O)C[C@@H]1CO (some centres not stated)
inactive: NCI-H23 > 100 µM | SNB-19 > 100 µM | SF-268 > 100 µM | HOP-62 > 100 µM | SF-295 > 100 µM | SK-MEL-28 > 100 µM | SNB-75 > 100 µM | HT-29 > 100 µM | HL-60 > 100 µM | NCI-H522 > 100 µM | MOLT-4 > 100 µM | EKVX > 100 µM | UACC-257 > 100 µM | LOX IMVI > 100 µM | UO-31 > 100 µM

O=C1c2ccc(O)c(O)c2C(=O)c2c(O)ccc(O)c21 [QUINALIZARIN]
inactive: NCI-H23 31.6 µM | SNB-19 29 µM | SF-268 26.6 µM | HOP-62 26.8 µM | SF-295 27.1 µM | SK-MEL-28 56 µM | SNB-75 > 10 µM | HT-29 35.2 µM | NCI-H522 1.45 µM | MOLT-4 23.1 µM | EKVX 26.9 µM | UACC-257 20.5 µM | LOX IMVI 18.2 µM | SK-MEL-2 25.7 µM | UO-31 21.3 µM | OVCAR-5 28.4 µM
